In patent US7772233B2, “Arylamino N-heteroaryl compounds as MEK inhibitors” (Merck Serono, S.A., priority 2006, dated 2010) one finds IC50 data, which are given here for 13 compounds.

One assay has as its target Human Mek1 Kinase (Homo sapiens, UniProt Q02750, S218E/S222E). The assay can be described thus: MEK-1 Enzyme Assay (LANCE-HTRF). The settings on record: constitutively active MEK-1EE, ERK-2K52A substrate, 9 μM ATP, 1.5 hrs room temperature. In kind it is biochemical. The procedure: Assay 1: MEK-1 Enzyme Assay (LANCE-HTRF)
Inhibition of Human Mek1 Kinase Activity was Monitored with a Homogenous, fluorescence-based assay. The assay uses time resolved fluorescence resonance energy transfer to probe for phosphorylation of ERK1 by MEK1. The detailed procedure is described in the following:
Constititutively active MEK-1EE (150 ng/well) and ERK-2K52A (110 ng/well) were incubated in black, 384 well Optiplates (Perkin Elmer) for 1.5 hrs at room temperature, in the presence of increasing concentrations of inhibitors. The total reaction volume was 50 μl. The inhibitors were serial diluted in kinase buffer (9 μM ATP, 50 mM Tris-HCl pH 8.0, 10 mM MgCl2, 1 mM DTT and 100 μM Na3VO4), to a final concentration of 1% DMSO. At the end of the incubation, the enzyme reaction was quenched by adding 50 μl of assay buffer containing 50 mM Tris-HCl, 50 mM EDTA, 0.1% BSA and a mixture of 1.25 ug/ml europium labeled anti-phosphotyrosine mAb (Perkin Elmer) and 5 μg/ml of allophycocyanin labeled anti-GST antibody (CIS-US). Plates were agitated on a plate shaker for 30 minutes and the phosphorylation of the ERK-2K52A substrate was measured by homogeneous time resolved fluorescence (HTRF) at 340 nm excitation and 665 nm (Europium)/615 nm (APC) emission filters on the VICTOR V fluorescence plate reader. Phosphorylation is expressed as a ratio of 665 nM signal×10,000/615 nM signal. To assess the inhibitory potential of the compounds, IC50-values were determined. Results are shown in Table 1, column 2, where “+++” indicates IC50 values below 1 μM, “++” indicates IC50 values below 10 μM and above 1 μM, and “+” indicates IC50 values above 10 μM.

The subject of the next assay is Murine colon C26 cells. Kind of assay: Tumor Cell Proliferation Assay (ATP Lite), C26. The assay is classed as cell-based. The settings on record: Mus musculus, 96 h, 4 days incubation, ATPlite. The procedure:
(§1) Assay 2: Tumor Cell Proliferation Assays (ATP Lite)
(§2) Murine colon C26 (1500 cells/well), human melanoma A375 (2000 cells/well), or human pancreatic MiaPaCa-2 cells (2000 cells/well) were plated in white, 96 well plates (Corning) in growth media (DMEM with 10% fetal bovine serum, 2 mM glutamine for C26 and MiaPaCa-2, and RPMI with 10% fetal bovine serum, 2 mM glutamine for A375) and cultured overnight at 37° C. in a humidified, 5% CO2 incubator. Inhibitors were serially diluted in 100% DMSO and subsequently added to the cells, in growth media, to reach a final concentration of 0.25% DMSO. The cells were incubated for 4 days in the presence of the test compounds and the proliferation was quantitated using the ATPlite cell proliferation kit (Packard). Results of cell proliferation assay are shown in Table 1. columns 3-5, where “+++” indicates IC50 values below 1 μM, “++” indicates IC50 values below 10 μM and above 1 μM, and “+” indicates IC50 values above 10 μM.
For orientation: Cellular ATP, detected with luciferase, serves as a proxy for viable cell number.

Assay [1] has as its system human melanoma A375 cells. The assay can be described thus: Tumor Cell Proliferation Assay (ATP Lite), A375. In kind it is cell-based. The settings on record: A-375, 96 h, 4 days incubation, ATPlite. The protocol: as §1, §2
Assay [2] deals with human pancreatic MiaPaCa-2 cells. The assay can be described thus: Tumor Cell Proliferation Assay (ATP Lite), MiaPaCa-2. In kind it is cell-based. The settings on record: MIA PaCa-2, 96 h, 4 days incubation, ATPlite, read-out: MiaPaCa2. The protocol:
as §1, §2

Some results are limits rather than exact numbers.

Human Mek1 Kinase, sequence (Q02750 whole entry S218E/S222E): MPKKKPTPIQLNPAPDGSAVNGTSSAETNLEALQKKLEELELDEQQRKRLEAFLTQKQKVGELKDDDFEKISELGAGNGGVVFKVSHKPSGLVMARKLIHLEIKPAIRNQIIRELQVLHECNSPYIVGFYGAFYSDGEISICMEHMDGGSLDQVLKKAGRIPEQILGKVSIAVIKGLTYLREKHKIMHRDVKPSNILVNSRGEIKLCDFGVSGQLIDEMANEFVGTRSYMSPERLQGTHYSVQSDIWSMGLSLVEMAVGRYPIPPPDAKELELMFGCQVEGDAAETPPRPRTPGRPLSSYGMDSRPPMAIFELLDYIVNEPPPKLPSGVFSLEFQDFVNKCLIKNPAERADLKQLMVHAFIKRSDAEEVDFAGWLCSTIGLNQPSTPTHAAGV

`N#Cc1ncc(F)cc1Nc1ccc(I)cc1F` [Example 1, 5-Fluoro-3-(2-fluoro-4-iodo-phenylamino)-pyridine-2-carbonitrile] had an IC50 at Human Mek1 Kinase greater than 10 µM.

`O=C(O)c1ncc(F)cc1Nc1ccc(I)cc1F` [Example 2, 5-Fluoro-3-(2-fluoro-4-iodo-phenylamino)-pyridine-2-carboxylic acid] displayed an IC50 against Human Mek1 Kinase of 1 to 10 µM.

As to `NC(=O)c1ncc(F)cc1Nc1ccc(I)cc1F` [Example 3, 5-Fluoro-3-(2-fluoro-4-iodo-phenylamino)-pyridine-2-carboxylic acid amide], the IC50 in the assay on Murine colon C26 cells was greater than 10 µM; at Human Mek1 Kinase, less than 1 µM; in assay [1], 1 to 10 µM; in assay [2], greater than 10 µM.

With `O=C(O)c1cc(Cl)nnc1Nc1ccc(I)cc1F` [Example 4, 6-Chloro-3-(2-fluoro-4-iodo-phenylamino)-pyridazine-4-carboxylic acid], the IC50 in the assay on Murine colon C26 cells is greater than 10 µM; against Human Mek1 Kinase, less than 1 µM; in assay [1], greater than 10 µM; in assay [2], greater than 10 µM.

Turning to `O=C(O)c1cc(N2CCOCC2)nnc1Nc1ccc(I)cc1F` [Example 5, 3-(2-Fluoro-4-iodo-phenylamino)-6-morpholin-4-yl-pyridazine-4-carboxylic acid], the IC50 with Murine colon C26 cells was greater than 10 µM; against Human Mek1 Kinase, 1 to 10 µM; in assay [1], greater than 10 µM; in assay [2], greater than 10 µM.

Regarding `COc1cc(C(=O)O)c(Nc2ccc(I)cc2F)nn1` [Example 6, 3-(2-Fluoro-4-iodo-phenylamino)-6-methoxy-pyridazine-4-carboxylic acid], the IC50 (with Murine colon C26 cells; against Human Mek1 Kinase; in assay [1]; in assay [2]) was greater than 10 µM throughout.

Turning to `CC1(C)OC[C@H](CONC(=O)c2cc(Cl)nnc2Nc2ccc(I)cc2F)O1` [Example 7, 6-Chloro-3-(2-fluoro-4-iodo-phenylamino)-pyridazine-4-carboxylic acid (2,2-dimethyl-[1,3]dioxolan-4-ylmethoxy)-amide], the IC50 (in the assay with Murine colon C26 cells; against Human Mek1 Kinase; in assay [1]; in assay [2]) was greater than 10 µM each time.

On to `O=C(NOC[C@H](O)CO)c1cc(Cl)nnc1Nc1ccc(I)cc1F` [Example 8, 6-Chloro-3-(2-fluoro-4-iodo-phenylamino)-pyridazine-4-carboxylic acid (2,3-dihydroxy-propoxy)-amide], for which the IC50 at Human Mek1 Kinase is greater than 10 µM.

`NC(=O)c1cc(Cl)nnc1Nc1ccc(I)cc1F` [Example 9, 6-Chloro-3-(2-fluoro-4-iodo-phenylamino)-pyridazine-4-carboxylic acid amide]: the IC50 was greater than 10 µM in the assay on Murine colon C26 cells, less than 1 µM at Human Mek1 Kinase, 1 to 10 µM in assay [1] and 1 to 10 µM in assay [2].

In the case of `O=C(NCCN1CCOCC1)c1cc(Cl)nnc1Nc1ccc(I)cc1F` [Example 10, 6-Chloro-3-(2-fluoro-4-iodo-phenylamino)-pyridazine-4-carboxylic acid (2-morpholin-4-yl-ethyl)-amide], the IC50 against Human Mek1 Kinase fell in the range of 1 to 10 µM.

On to `O=C(O)c1ccc(F)nc1Nc1ccc(I)cc1F` [Example 11, 6-fluoro-2-[(2-fluoro-4-iodophenyl)amino]nicotinic acid], for which the IC50 was greater than 10 µM in the assay on Murine colon C26 cells, less than 1 µM against Human Mek1 Kinase, greater than 10 µM in assay [1] and greater than 10 µM in assay [2].

Turning to `CC1(C)OC[C@H](CONC(=O)c2ccc(F)nc2Nc2ccc(I)cc2F)O1` [Example 12, N-{[(4R)-2,2-dimethyl-1,3-dioxolan-4-yl]methoxy}-6-fluoro-2-[(2-fluoro-4-iodophenyl)amino]nicotinamide], the IC50 against Human Mek1 Kinase fell in the range of 1 to 10 µM.

In the case of `O=C(NOC[C@H](O)CO)c1ccc(F)nc1Nc1ccc(I)cc1F` [Example 13, N—[(R)-2,3-Dihydroxy-propoxy]-6-fluoro-2-[(2-fluoro-4-iodo-phenylamino)]-nicotinamide], the IC50 is greater than 10 µM in the assay with Murine colon C26 cells, 1 to 10 µM against Human Mek1 Kinase, 1 to 10 µM in assay [1] and greater than 10 µM in assay [2].
